Measurements taken from publication PMC10147923, “Pain-causing stinging nettle toxins target TMEM233 to modulate NaV1.7 function” (Nature Communications, 2023).
Values joined by “and” are separate entries in the source; they are usually repeats but may differ in a detail not shown here. Equal entries are not always repeated. Where two headings read alike, the source gives them in different places. Positions of bridges follow the written chain, without caps; N, C: chain ends. Residues, ends and D or L forms follow the SMILES beside them.

How the values were obtained:
Drosophila melanogaster = format: in vivo; conditions: injection 0.5 nmol, affected/total
Method: To test for insecticidal activity, we injected ExTxA into three-day old Drosophila melanogaster females (average weight 0.875 mg). In total 77 D. melanogaster were used for this study: 52 individuals were each injected with 0.5 nmol (50 nL of a […] solution) ExTxA, while 25 individuals served as control group and were injected with vehicle control (3% acetonitrile, 0.1% bovine serum albumin in water) and scored by a blinded observer.

TMEM233 = TMEM233 (Homo sapiens, UniProt B4DJY2); assay: Currents in Cos-1 cells transfected with TMEM233 only; format: cell-based
Method: (§1) Whole-cell patch clamp experiments involving HEK293, COS-1, CHO, ND7/23, F11, SH-SY5Y and TE-671 cells were performed on a QPatch II automated electrophysiology platform (Sophion Bioscience, Ballerup, Denmark) as previously described. Cells at approximately 70–80% confluency were harvested from T75 flasks using TrypLE Express at 37 °C for 2–5 min and resuspended in DMEM with 25 mM HEPES (Sigma-Aldrich, NSW, Australia), 100 U/mL Penicillin-Streptomycin (Gibco) and 40 µg/mL trypsin inhibitor from Glycine max (soybean) (Sigma Aldrich) prior to recovery on a QStirrer (Sophion) for 30 min. 16-channel patch plates with a patch hole diameter of 1 μm and resistance of 2 ± 0.02 MΩ were used. Cell positioning and sealing parameters were as follows: positioning pressure −60 mbar, minimum seal resistance 0.1 GΩ, holding potential −100 mV, holding pressure −20 mbar. Whole-cell currents were filtered at 5 kHz and acquired at 25 kHz. Series resistance compensation was used and set to 70%.

[1] = test system: NaV currents in SH-SY5Y cells; assay: Persistent current, SH-SY5Y cells; format: cell-based, human; conditions: ExTxA 1 µM
[2] = NMR of 15N-labelled ExTxA with dodecylphosphocholine micelles; format: binding; conditions: 1H-15N TROSY, 30 µM peptide, 20 mM Tris pH 8, 50 mM NaCl, 10% DPC, 298 K
Method: For NMR analysis, lyophilized ^15N-labelled ExTxA was resuspended either in 40% deuterated acetonitrile or buffer containing 20 mM Tris pH 8, 50 mM NaCl, 10% (w/v) dodecylphosphocholine (DPC) and 5% D2O. ^1H-^15N transverse relaxation optimized spectroscopy (TROSY) spectra were acquired for the peptide samples (30 µM) on a Bruker Avance 900 MHz NMR spectrometer equipped with a triple resonance cryogenic probe at 298 K. The spectra were processed using TOPSPIN v4.1.4 software (Bruker, Massachusetts, USA).

NaV1.7/TMEM233 [3] = target: T1, NaV1.7/TMEM233 (Homo sapiens, UniProt B4DJY2+Q15858); format: cell-based
Cos-1 cells = assay: Currents in untransfected Cos-1 cells; format: cell-based; conditions: ExTxA 1 µM, mean ± SEM, n = 6
Method: as §1

hNaV1.7 = format: cell-based, human
hNaV1.7/β1 = assay: Persistent current, CHO hNaV1.7/β1; format: cell-based, human; conditions: ExTxA 1 µM, mean, n = 11
NaV1.7/TMEM233 [4] = target: T1, NaV1.7/TMEM233; format: cell-based; remark: listed apart in the source
Method: HEK293-NaV1.7 cells were transfected with TMEM233, CRELD1, LMAN2L, MMGT1, RNF121 and STT3B and co-transfected with five plasmids coding for the Glycosylphosphatidylinositol (GPI) complex (GPAA1, PIGK, PIGS, PIGU, PIGT) using Lipofectamine 2000. After 24 h, transfected cells were harvested and plated at a density of 10,000–15,000 cells per well on black-walled 384-well imaging plates. Plated cells were cultured for a further 24 h at 37 °C and 5% CO2. FLIPR (Fluorescent Imaging Plate Reader) Red membrane potential assay dye (Molecular Devices, California, USA) was diluted in physiological salt solution according to the manufacturer’s instructions (PSS, in mM: NaCl 140, glucose 11.5, HEPES 10, KCl 5.9, MgCl2 1.4, NaH2PO4 1.2, NaHCO3 5, CaCl2 1.8, pH 7.4). Growth medium was removed from the plate and replaced with 20 µL of FLIPR Red membrane potential assay dye per well and incubated in the dark at 37 °C for 60 min. […] Fluorescence responses to ExTxA were computed as the maximum change in fluorescence over baseline (ΔF/F0) using ScreenWorks (Molecular Devices, Version 5.1.2.94).

NaV1.7/TMEM233 [5] = target: T1, NaV1.7/TMEM233; format: cell-based; remark: listed apart in the source
Method: Current-voltage (IV) curves were determined in HEK-NaV1.7 cells, in the absence and presence of TMEM233, from a series of step pulses (500 ms) ranging from −110 to +55 mV (5 mV increments, repetition interval 5 s) before and after incubation with ExTxA (1 μM) from a holding potential of −90 mV. Currents were converted to conductance (G) using G = I/(V − Vrev), with Vrev being the reversal potential, plotted against voltage and fitted with a Boltzmann equation to obtain GV (conductance-voltage) curves. Voltage dependence of steady-state fast inactivation was determined by a subsequent 10 ms pulse to −20 mV immediately following the 500 ms depolarization step detailed above to assess the available non-inactivated channels.

hNaV1.1 = assay: Persistent current, HEK293-hNaV1.1/β1; format: cell-based, human; conditions: ExTxA 1 µM; individual cells
[6] = best-fit value, log(agonist) vs. response -- variable slope (four parameters)
[7] = individual cells, paired with buffer

Sequence of TMEM233 (B4DJY2 whole entry): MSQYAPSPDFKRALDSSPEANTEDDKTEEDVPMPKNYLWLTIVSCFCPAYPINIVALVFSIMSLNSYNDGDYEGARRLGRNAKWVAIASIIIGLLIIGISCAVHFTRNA

For `CC[C@H](C)[C@@H]1NC(=O)[C@H](CCCNC(=N)N)NC(=O)[C@H](Cc2ccccc2)NC(=O)[C@H](CC(C)C)NC(=O)[C@H](CO)NC(=O)[C@@H]2CSSC[C@@H]3NC(=O)[C@H]([C@@H](C)O)NC(=O)[C@H](CSSC[C@H](NC(=O)[C@H](CCCNC(=N)N)NC(=O)[C@@H]4CCCN4C(=O)[C@@H](N)CC(C)C)C(=O)N[C@@H](CC(=O)O)C(=O)N[C@@H](CO)C(=O)N4CCC[C@H]4C(=O)N[C@@H](Cc4ccccc4)C(=O)N2)NC(=O)[C@H](CCCCN)NC(=O)[C@H](CC(=O)O)NC(=O)CNC(=O)[C@H](CSSC[C@@H](C(=O)N[C@H](C(=O)N2CCC[C@H]2C(=O)N[C@@H](CC(=O)O)C(=O)N[C@H](C(=O)O)C(C)C)C(C)C)NC(=O)[C@H](CC(C)C)NC(=O)CNC(=O)[C@H](Cc2ccccc2)NC(=O)[C@H]([C@@H](C)CC)NC(=O)[C@@H]2CCCN2C(=O)[C@H](CC(C)C)NC(=O)[C@@H]2CCCN2C(=O)[C@H](C(C)C)NC3=O)NC(=O)[C@H](CC(C)C)NC(=O)CNC1=O` [ExTxA, excelsatoxin A] (H-LPRCDSPFCSLFRIGLCGDKCTCVPLPIFGLCVPDV-OH; disulfide 4-21, 9-23, 17-32), the paralysis (Drosophila melanogaster; after 15 min, control 1/25) was 2/52, the death (Drosophila melanogaster; after 2 h, control 0/25) was 1/52 and the ExTxA-induced persistent current (TMEM233) was -7.493 ± 8.833. For the same compound, the “ExTxA-induced currents, TMEM233 alone” value (TMEM233; cells lacking endogenous NaV currents) was “did not result in either voltage-gated or ExTxA-induced currents”, the “persistent current (I40 ms/Ipeak)” value ([1]; individual cells) was -0.02037 and -0.04756 and 0.0447 and 0.01578 and 0.03746 and the “Δ persistent current (I40 ms/Ipeak; buffer cf. ExTxA)” value ([1]; mean) was 0.006 ± 0.0175 and 0.006003. For the same compound, the “association with dodecylphosphocholine micelles” value [2] was “associates with dodecylphosphocholine micelles”, the “Best-fit parameter Bottom” value (NaV1.7/TMEM233 [3]) was 0.0729 and the “Best-fit parameter Hill slope” value (NaV1.7/TMEM233 [3]) was 1.156. The “Best-fit parameter Top” value (NaV1.7/TMEM233 [3]) was 0.7692, the Top (NaV1.7/TMEM233 [3]) was 0.7845 and the “persistent current, Predicted (LS) mean diff.” value (NaV1.7/TMEM233 [3]) was -0.5401. For the same compound, the “potency with TMEM233 versus PRRT2 or TRARG1” value (NaV1.7/TMEM233 [3]) was “significantly more potent when co-expressed with TMEM233”, the “effect on inactivation, toxin in extracellular solution” value (NaV1.7/TMEM233 [3]; ExTxA 100 nM in ECS) was “robustly inhibited inactivation” and the “effect on inactivation, toxin in intracellular solution” value (NaV1.7/TMEM233 [3]; ExTxA 100 nM in ICS) was “did not affect inactivation”. For the same compound, the “Difference between means (D - C), TMEM233 minus control” value (NaV1.7/TMEM233 [3]; ExTxA 1 µM) was -1468 ± 228.9 pA, the LogEC50 (NaV1.7/TMEM233 [3]; Nav1.7/TMEM233, 95% CI -8.367 to -8.102, Fig 4g) was -8.24 and the HillSlope (NaV1.7/TMEM233 [3]; Nav1.7/TMEM233, Fig 4g) was 0.9284. For the same compound, the ExTxA-induced persistent current (Cos-1 cells) was -2.019 ± 5.908 pA, the “persistent current, Predicted (LS) mean diff.” value (hNaV1.7) was -0.04169 and the “persistent current (I40 ms/Ipeak)” value (hNaV1.7; ExTxA 100 nM in ECS, mean ± SEM, n = 10) was 0.04 ± 0.014. The “persistent current (I40 ms/Ipeak)” value (hNaV1.7; ExTxA 100 nM in ICS, mean ± SEM, n = 10) was -0.002 ± 0.004, the persistent current (hNaV1.7; ExTxA 1 µM, HEK NaV1.7/β1, individual cells) was -10.167 pA and -21.3045 pA and 17.0051 pA and 11.4493 pA and -20.8771 pA and -5.293 pA and -9.443 pA and -10.0671 pA and 5.003 pA and -11.1496 pA and -2.37 pA and the “persistent current (I40 ms/Ipeak)” value (hNaV1.7; ExTxA 1 µM, individual cells) was -0.00096 and -0.00393 and -0.00509 and -0.00016 and 0.00507 and -0.00078 and -0.00158 and -0.00022 and -9.8e-6 and 0.000228 and 0.002683. For the same compound, the “Δ persistent current (I40 ms/Ipeak) in CHO hNaV1.7” value (hNaV1.7/β1) was 0.0001 ± 0.001 and 0.0001365, the DF/F (NaV1.7/TMEM233 [4]) was 0.3009 and 0.2755 and the “ΔF/F in NaV1.7 HEK293” value (NaV1.7/TMEM233 [4]; ExTxA 1 µM, TMEM233, mean, n = 3) was 0.29 ± 0.0075 and 0.2867. For the same compound, the DF/F (NaV1.7/TMEM233 [4]; ExTxA 1 µM, TMEM233, replicate 3) was 0.2837, the Bottom (NaV1.7/TMEM233 [4]; [6]) was 0.07296 and the HillSlope (NaV1.7/TMEM233 [4]; [6]) was 1.156. For the same compound, the LogEC50 (NaV1.7/TMEM233 [4]; [6]) was -8.146, the Span (NaV1.7/TMEM233 [4]; [6]) was 0.6962 and the Top (NaV1.7/TMEM233 [4]; [6]) was 0.7692. For the same compound, the “ExTxA-sensitivity of NaV1.7-expressing HEK293 cells” value (NaV1.7/TMEM233 [4]; of all 10 gene hits) was “only expression of TMEM233 imparted ExTxA-sensitivity to NaV1.7-expressing HEK293 cells”, the “depolarizing shift in the voltage-dependence of fast inactivation” value (NaV1.7/TMEM233 [5]) was 18.0 mV and the “hyperpolarizing shift in the voltage-dependence of activation” value (NaV1.7/TMEM233 [5]) was 11.6 mV. The V50 of Activation (NaV1.7/TMEM233 [5]; ExTxA 1 µM, NaV1.7/TMEM233, mean ± SEM, n = 7, control -24.31 ± 1.11) was -35.92 ± 1.00 mV, the V50 of Inactivation (NaV1.7/TMEM233 [5]; ExTxA 1 µM, NaV1.7/TMEM233, mean ± SEM, n = 8, control -67.77 ± 1.12) was -49.80 ± 3.20 mV and the “V50 of Activation, mean of differences (B - A)” value (NaV1.7/TMEM233 [5]; ExTxA vs. buffer, paired t test, 7 pairs) was -11.61. The “V50 of Inactivation, mean of differences (B - A)” value (NaV1.7/TMEM233 [5]; ExTxA vs. buffer, paired t test, 8 pairs) was 17.97, the “V50 of Activation” value (NaV1.7/TMEM233 [5]; [7]) was -34.91 and -38.74 and -38.17 and -35.28 and -37.07 and -36.44 and -30.84 and the “V50 of Inactivation” value (NaV1.7/TMEM233 [5]; [7]) was -45.67 and -44.27 and -43.05 and -47.34 and -66.38 and -46.52 and -43.25 and -61.92. The “persistent current (I40 ms/Ipeak)” value (hNaV1.1) was 0.000881 and 0.001374 and 0.002237 and -0.03938 and -0.00046 and -0.00216 and -0.00201 and 0.01125 and 0.00618 and -0.00021 and -0.01358.
